Paper PMC4182434, “Characterization of Niphatenones that Inhibit Androgen Receptor N-Terminal Domain” (PLoS ONE, 2014)

How the values were obtained:
[1] = target: T1, full-length AR (endogenous, LNCaP) (Homo sapiens, UniProt P10275, T878A); assay: PB-luciferase reporter in LNCaP cells; assay type: cell-based; details: R1881-induced, serum-free, […] h; antagonist, AF-1 directed; covalent
T1 construct: endogenous full-length AR of LNCaP cells
T1 sequence (P10275 1-920 T878A): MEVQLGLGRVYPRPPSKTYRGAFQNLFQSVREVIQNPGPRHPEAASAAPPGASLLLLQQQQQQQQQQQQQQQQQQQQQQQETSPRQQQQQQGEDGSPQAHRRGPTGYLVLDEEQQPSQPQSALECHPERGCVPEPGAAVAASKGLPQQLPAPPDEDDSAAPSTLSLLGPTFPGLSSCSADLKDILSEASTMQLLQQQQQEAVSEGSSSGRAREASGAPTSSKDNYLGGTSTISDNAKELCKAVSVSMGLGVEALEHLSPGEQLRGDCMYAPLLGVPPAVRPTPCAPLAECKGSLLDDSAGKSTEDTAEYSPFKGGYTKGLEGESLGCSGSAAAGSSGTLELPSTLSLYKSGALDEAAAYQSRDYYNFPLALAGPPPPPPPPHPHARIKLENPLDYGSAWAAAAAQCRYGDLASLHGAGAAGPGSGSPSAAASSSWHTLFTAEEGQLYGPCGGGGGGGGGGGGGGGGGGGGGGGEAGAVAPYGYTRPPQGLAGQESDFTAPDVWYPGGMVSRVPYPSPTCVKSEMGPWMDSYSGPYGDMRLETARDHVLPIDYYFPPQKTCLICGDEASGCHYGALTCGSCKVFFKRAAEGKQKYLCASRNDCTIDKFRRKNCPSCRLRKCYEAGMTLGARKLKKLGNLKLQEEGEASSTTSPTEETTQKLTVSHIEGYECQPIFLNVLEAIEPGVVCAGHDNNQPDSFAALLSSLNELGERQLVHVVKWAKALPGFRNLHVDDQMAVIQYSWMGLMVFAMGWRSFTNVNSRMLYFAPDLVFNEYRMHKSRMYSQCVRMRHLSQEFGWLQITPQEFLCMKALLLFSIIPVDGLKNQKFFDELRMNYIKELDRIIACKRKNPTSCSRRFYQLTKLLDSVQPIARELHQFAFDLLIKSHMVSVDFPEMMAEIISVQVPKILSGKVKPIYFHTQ

AR AF-1 = target: T2, AR AF-1 (Homo sapiens, UniProt P10275); assay: Click-chemistry fluorescein labelling, SDS-PAGE; assay type: binding; details: covalent; […] protein, […] probe, on ice […] min
T2 construct: recombinant AF-1 region, residues 142-485
T2 sequence (P10275 143-486): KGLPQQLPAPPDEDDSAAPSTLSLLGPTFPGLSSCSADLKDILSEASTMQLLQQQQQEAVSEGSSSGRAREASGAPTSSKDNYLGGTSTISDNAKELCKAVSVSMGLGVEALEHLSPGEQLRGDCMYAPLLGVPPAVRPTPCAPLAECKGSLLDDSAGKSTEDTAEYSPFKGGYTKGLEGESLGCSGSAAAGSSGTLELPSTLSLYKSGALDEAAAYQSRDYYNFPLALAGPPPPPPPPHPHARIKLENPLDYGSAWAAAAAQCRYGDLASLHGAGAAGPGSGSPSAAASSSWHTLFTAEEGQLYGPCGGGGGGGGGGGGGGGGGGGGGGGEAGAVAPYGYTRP

IC50 [1] | SMILES | Click-chemistry fluorescein labelling, SDS-PAGE (AR AF-1)
6.3 ± 0.5 µM | CCCCCCCCCCCCC(=O)/C=C/CCCOC[C@H](O)CO [(R)-niphatenone B] | 
5.7 ± 0.6 µM | CCCCCCCCCCCCC(=O)/C=C/CCCOC[C@@H](O)CO [(S)-niphatenone B] | 
 | C#CCOCC(O)COCCC/C=C/C(=O)CCCCCCCCCCCC (stereo not drawn) [compound 44, niphatenone B 44] | resulted in covalent binding to both AR AF-1 and GR AF-1 peptide
